This note sets out measurements from publication PMC5143673 (Innate immunity, 2016).

Data set [1] deals with N-HisTag containing ApoA1 (NH-ApoA1) (UniProt P02647). Put plainly: SPR.

Non-standard residues stand in square brackets, D forms with d. No end group written: not given here. hCit = NC(=O)NCCCC[C@H](N)C(=O)O

UniProt P02647, sequence (P02647 19-267): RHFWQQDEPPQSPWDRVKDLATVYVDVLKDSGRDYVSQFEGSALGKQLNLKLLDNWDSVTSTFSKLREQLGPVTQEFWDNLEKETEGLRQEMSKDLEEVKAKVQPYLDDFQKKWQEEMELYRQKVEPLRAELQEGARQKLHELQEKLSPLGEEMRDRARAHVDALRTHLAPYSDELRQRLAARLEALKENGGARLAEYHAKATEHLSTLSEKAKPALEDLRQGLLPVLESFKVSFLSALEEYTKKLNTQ

With “LLGDFFRKSKEKIGKEFKRIVQRIKDFLRNLVPRTES [LL-37]”, the “capacity to lyse neutrophils and erythrocytes” value with neutrophils is “ability of LL-37^C8 and LL-37^C12,15 to lyse neutrophils and erythrocytes was different”.

For LLGDFFRKSKE[hCit]IG[hCit]EFKRIVQRIKDFLRNLVPRTES [LL-37^C12,15 (LL-37 carbamylated on Lys-12 and Lys-15)], in data set [1], the fold lower affinity than native LL-37 is 3 fold.
